Reference: PubChem BioAssay (NCI)
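A five-concentration, 48-hour dose response in 96-well plates underlies each endpoint, interpolated linearly between surrounding concentrations. At the GI50, growth is halved. TGI: total growth inhibition.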

Tests used:
Experiment in all cases: NCI tumour cell line growth inhibition, 48 h
[1] = tested on: 786-0 renal
[2] = tested on: K-562 leukemia
[3] = tested on: LOX IMVI melanoma
[4] = tested on: SK-MEL-2 melanoma
[5] = tested on: SF-295 CNS
[6] = tested on: BT-549 breast
[7] = tested on: MALME-3M melanoma
[8] = tested on: DU-145 prostate
[9] = tested on: NCI-H522 lung
[10] = tested on: A549 NSCLC

| SMILES | GI50 [1] | TGI [1] | GI50 [2] | TGI [2] | GI50 [3] | TGI [3] | GI50 [4] | TGI [4] | GI50 [5] | TGI [5] | GI50 [6] | TGI [6] | GI50 [7] | TGI [7] | GI50 [8] | TGI [8] | GI50 [9] | TGI [9] | GI50 [10] | TGI [10] |
| --- | --- | --- | --- | --- | --- | --- | --- | --- | --- | --- | --- | --- | --- | --- | --- | --- | --- | --- | --- | --- |
| N#CC1c2ccccc2C=CN1C(=O)N(c1ccccc1)c1ccccc1 (centres undefined) | 4.32 µM | 15.2 µM | 3.06 µM | > 100 µM | 2.04 µM | 4.61 µM | 3.97 µM | 13.6 µM | 12.6 µM | 25.2 µM | 8.68 µM | 21.2 µM | 1.61 µM | 3.55 µM | 3.04 µM | 9.36 µM | 1.78 µM | 3.33 µM | 19.7 µM | 51.8 µM |
| CCN1CCN(C(=O)[C@]23CCC(C)(C)C[C@@H]2C2=CC[C@@H]4[C@@]5(C)C/C(=C/c6ccncc6)C(=O)C(C)(C)[C@@H]5CC[C@@]4(C)[C@]2(C)CC3)CC1 | 1.68 µM | 3.15 µM | 1.6 µM | > 100 µM | 1.4 µM | 2.8 µM | 1.73 µM | 3.33 µM | 1.43 µM | 2.76 µM | 1.53 µM | 3.04 µM | 1.65 µM | 3.14 µM | 1.67 µM | 3.19 µM | 1.53 µM | 3.39 µM | 1.66 µM | 4.65 µM |
| CN1C(=O)C2(c3ccccc31)N(c1ccc(Cl)cc1)C(=O)C2(c1ccccc1)c1ccccc1 (centres undefined) | > 100 µM | > 100 µM | 4.28 µM | 95.3 µM | > 100 µM | > 100 µM | 35.6 µM | > 100 µM | 11 µM | > 100 µM | > 100 µM | > 100 µM | 50.8 µM | > 100 µM | 99 µM | > 100 µM | 10 µM | > 100 µM | 18.5 µM | > 100 µM |
| CN(Cc1cnc2nc(N)nc(N)c2n1)c1ccc(C(=O)NC(CCC(=O)O)C(=O)O)cc1Br (centres undefined) | < 0.01 µM | – | < 0.01 µM | > 100 µM | < 0.01 µM | 2.1 µM | < 0.01 µM | > 100 µM | < 0.01 µM | 0.201 µM | < 0.01 µM | 2.5 µM | < 0.01 µM | 3.92 µM | < 0.01 µM | > 100 µM | < 0.01 µM | 31.2 µM | < 0.01 µM | > 100 µM |
| C=CC(=O)N1CC2(CC(n3nc(-c4ccc5c(cnn5C)c4)c(-c4c(Cl)c(C)cc5[nH]ncc45)c3C)C2)C1 | 3.71 µM | 15.4 µM | 2.78 µM | > 100 µM | 1.69 µM | 3.55 µM | 1.91 µM | 3.63 µM | 2.16 µM | 5.43 µM | 2.57 µM | 7.9 µM | 2.44 µM | 5.09 µM | 3.11 µM | 9.45 µM | 2.09 µM | 5.15 µM | 3.05 µM | 12.5 µM |
| O=C1NC(=NCCCc2ccccc2)S/C1=C\c1ccc2ncccc2c1 | 5.47 µM | 13 µM | 9.12 µM | > 25 µM | 5.12 µM | 14.6 µM | 4.96 µM | 9.67 µM | 4.75 µM | > 17.5 µM | 4.58 µM | 10.4 µM | 7.43 µM | 19.3 µM | 5.89 µM | 18 µM | 4.47 µM | 9.17 µM | 4.68 µM | 13.8 µM |
| c1ccc2c3c([nH]c2c1)C(c1ccc(C2NCCc4c2[nH]c2ccccc42)cc1)NCC3 (centres undefined) | 1.75 µM | 3.38 µM | 0.244 µM | 0.488 µM | 0.196 µM | 0.45 µM | 1.7 µM | 3.57 µM | 1.62 µM | 3.33 µM | 11.1 µM | 24.4 µM | 1.55 µM | 3.11 µM | 0.749 µM | 2.13 µM | 0.414 µM | 1.49 µM | 1.1 µM | 2.54 µM |
| CC[n+]1c(/C=C/C=C2\N(C)c3ccccc3C2(C)C)sc2ccccc21 | 4.33 µM | 8.38 µM | 4.34 µM | 9.43 µM | 4 µM | 8.48 µM | 5.23 µM | 11 µM | 3.88 µM | 7.55 µM | 4.3 µM | 8.6 µM | 4.28 µM | 8.1 µM | 4.15 µM | 7.76 µM | 3.8 µM | 9.03 µM | 4.77 µM | 10 µM |
